# Measured values reported in ChEMBL document CHEMBL2074337, “Predicting P-glycoprotein effects on oral absorption: correlation of transport in Caco-2 with drug pharmacokinetics in wild-type and mdr1a(-/-) mice in vivo” (Pharm Res, 2004).
# Target: ATP-dependent translocase ABCB1 (Homo sapiens, UniProt P08183)
# Assay: TP_TRANSPORTER: transepithelial transport in Caco 2 cell
# Format: functional, cell-based
# ATP-dependent translocase ABCB1, sequence (P08183 whole entry): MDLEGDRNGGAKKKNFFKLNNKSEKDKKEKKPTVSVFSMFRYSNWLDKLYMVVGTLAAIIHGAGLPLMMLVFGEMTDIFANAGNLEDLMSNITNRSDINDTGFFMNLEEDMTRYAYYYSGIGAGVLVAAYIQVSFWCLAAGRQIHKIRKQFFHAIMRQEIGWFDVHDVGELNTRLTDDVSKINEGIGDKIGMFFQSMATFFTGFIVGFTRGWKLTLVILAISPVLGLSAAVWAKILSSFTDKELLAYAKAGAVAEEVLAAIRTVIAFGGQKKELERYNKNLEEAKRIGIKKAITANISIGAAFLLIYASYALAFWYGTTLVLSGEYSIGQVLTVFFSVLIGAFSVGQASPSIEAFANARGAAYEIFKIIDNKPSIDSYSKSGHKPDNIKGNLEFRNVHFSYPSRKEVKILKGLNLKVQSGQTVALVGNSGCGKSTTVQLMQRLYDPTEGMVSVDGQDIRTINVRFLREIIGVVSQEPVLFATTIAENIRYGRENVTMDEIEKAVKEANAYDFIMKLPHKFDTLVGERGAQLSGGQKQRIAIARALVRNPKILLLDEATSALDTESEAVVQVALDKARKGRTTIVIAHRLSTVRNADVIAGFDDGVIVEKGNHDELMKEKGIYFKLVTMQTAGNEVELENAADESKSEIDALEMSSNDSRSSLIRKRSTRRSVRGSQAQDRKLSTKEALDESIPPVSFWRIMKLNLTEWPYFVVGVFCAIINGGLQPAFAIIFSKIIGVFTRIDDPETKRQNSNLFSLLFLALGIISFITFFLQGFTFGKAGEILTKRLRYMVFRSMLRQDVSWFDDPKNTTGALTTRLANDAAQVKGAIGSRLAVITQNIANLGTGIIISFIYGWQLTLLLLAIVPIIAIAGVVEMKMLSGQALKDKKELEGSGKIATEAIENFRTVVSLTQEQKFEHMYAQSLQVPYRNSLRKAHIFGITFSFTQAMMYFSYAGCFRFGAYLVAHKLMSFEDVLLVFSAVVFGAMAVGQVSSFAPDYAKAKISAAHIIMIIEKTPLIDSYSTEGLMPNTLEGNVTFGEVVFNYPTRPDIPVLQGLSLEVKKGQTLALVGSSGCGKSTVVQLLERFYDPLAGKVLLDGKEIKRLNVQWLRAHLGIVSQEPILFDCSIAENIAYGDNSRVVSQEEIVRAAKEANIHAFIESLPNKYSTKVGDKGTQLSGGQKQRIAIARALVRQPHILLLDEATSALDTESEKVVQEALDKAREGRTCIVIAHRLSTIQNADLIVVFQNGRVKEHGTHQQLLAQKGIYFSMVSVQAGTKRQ
row,Structure (SMILES),Activity
1,NS(=O)(=O)N1CCN(C2CN(CC[C@]3(c4ccc(Cl)c(Cl)c4)CCC(=O)N(CC4CC4)C3)C2)CC1,substrate [+]
2,C=CCNc1nc(NCC=C)nc(N2CCC(NCC(c3ccc(F)cc3)c3ccc(F)cc3)CC2)n1,substrate [+]
3,C[C@H]1O[C@@H](O[C@H]2[C@@H](O)C[C@H](O[C@H]3[C@@H](O)C[C@H](O[C@H]4CC[C@@]5(C)[C@H](CC[C@@H]6[C@@H]5C[C@@H](O)[C@]5(C)[C@@H](C7=CC(=O)OC7)CC[C@]65O)C4)O[C@@H]3C)O[C@@H]2C)C[C@H](O)[C@@H]1O [DIGOXIN],substrate [+]
4,CC(=O)O[C@H]1C(=O)[C@@]2(C)[C@H]([C@H](OC(=O)c3ccccc3)[C@]3(O)C[C@H](OC(=O)[C@H](O)[C@@H](NC(=O)c4ccccc4)c4ccccc4)C(C)=C1C3(C)C)[C@]1(OC(C)=O)CO[C@@H]1C[C@@H]2O [PACLITAXEL],substrate [+]
5,CO[C@H]1/C=C/O[C@@]2(C)Oc3c(C)c(O)c4c(O)c(c(/C=N/N5CCN(C)CC5)c(O)c4c3C2=O)NC(=O)/C(C)=C\C=C\[C@H](C)[C@H](O)[C@@H](C)[C@@H](O)[C@@H](C)[C@H](OC(C)=O)[C@@H]1C [RIFAMPIN],substrate [+]
6,CC(C)(C)NC(=O)[C@@H]1C[C@@H]2CCCC[C@@H]2CN1C[C@@H](O)[C@H](Cc1ccccc1)NC(=O)[C@H](CC(N)=O)NC(=O)c1ccc2ccccc2n1 [SAQUINAVIR],substrate [+]
7,C=CC[C@@H]1/C=C(\C)C[C@H](C)C[C@H](OC)[C@H]2O[C@@](O)(C(=O)C(=O)N3CCCC[C@H]3C(=O)O[C@H](/C(C)=C/[C@@H]3CC[C@@H](O)[C@H](OC)C3)[C@H](C)[C@@H](O)CC1=O)[C@H](C)C[C@@H]2OC [TACROLIMUS ANHYDROUS],substrate [+]
8,CC[C@@]1(O)C(=O)OCc2c1cc1n(c2=O)Cc2cc3c(CN(C)C)c(O)ccc3nc2-1 [TOPOTECAN],substrate [+]
